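Cells were grown in 96-well plates and exposed to each compound for 48 hours at five concentrations; endpoints were interpolated linearly between bracketing concentrations, or set to the highest concentration if not reached. GI50: concentration for 50% inhibition of growth. TGI: total growth inhibition.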
Experiments:
Experiment in all cases: NCI anticancer screen, dose series, 48 h
HOP-62 NSCLC = system: HOP-62 NSCLC
SK-MEL-5 melanoma = system: SK-MEL-5 melanoma
SW-620 colon = system: SW-620 colon
IGROV1 ovarian = system: IGROV1 ovarian
K-562 leukemia = system: K-562 leukemia
OVCAR-5 ovarian = system: OVCAR-5 ovarian
MALME-3M melanoma = system: MALME-3M melanoma
HT29 colon = system: HT29 colon
BT-549 breast = system: BT-549 breast
U251 CNS = system: U251 CNS
CCRF-CEM leukemia = system: CCRF-CEM leukemia
RXF 393 renal = system: RXF 393 renal
NCI-H23 lung = system: NCI-H23 lung
SK-OV-3 ovarian = system: SK-OV-3 ovarian
SN12C renal = system: SN12C renal
T-47D breast = system: T-47D breast
OVCAR-8 ovarian = system: OVCAR-8 ovarian
SF-539 CNS = system: SF-539 CNS
CAKI-1 renal = system: CAKI-1 renal
TK-10 renal = system: TK-10 renal
M14 melanoma = system: M14 melanoma
DU-145 prostate = system: DU-145 prostate
ACHN renal = system: ACHN renal
MDA-MB-231 breast = system: MDA-MB-231 breast
HS 578T breast = system: HS 578T breast
PC-3 prostate = system: PC-3 prostate
EKVX NSCLC = system: EKVX NSCLC
MCF7 breast = system: MCF7 breast
KM12 colon = system: KM12 colon
SNB-19 CNS = system: SNB-19 CNS
A549 NSCLC = system: A549 NSCLC
SR leukemia = system: SR leukemia
SF-295 CNS = system: SF-295 CNS
MDA-MB-468 breast = system: MDA-MB-468 breast
UACC-62 melanoma = system: UACC-62 melanoma
HCT-15 colon = system: HCT-15 colon
HOP-92 NSCLC = system: HOP-92 NSCLC
UACC-257 melanoma = system: UACC-257 melanoma
COLO 205 colon = system: COLO 205 colon
LOX IMVI melanoma = system: LOX IMVI melanoma
SNB-75 CNS = system: SNB-75 CNS
OVCAR-4 ovarian = system: OVCAR-4 ovarian
SK-MEL-28 melanoma = system: SK-MEL-28 melanoma
UO-31 renal = system: UO-31 renal
MOLT-4 leukemia = system: MOLT-4 leukemia
OVCAR-3 ovarian = system: OVCAR-3 ovarian
RPMI-8226 leukemia = system: RPMI-8226 leukemia
SF-268 CNS = system: SF-268 CNS
HCT-116 colon = system: HCT-116 colon
MDA-MB-435 = system: MDA-MB-435
NCI-H226 lung = system: NCI-H226 lung
HCC-2998 colon = system: HCC-2998 colon
786-0 renal = system: 786-0 renal
A498 renal = system: A498 renal
NCI-H460 lung = system: NCI-H460 lung
NCI-H522 lung = system: NCI-H522 lung
HL-60(TB) leukemia = system: HL-60(TB) leukemia

SMILES: CC(C)Sc1nc(NCCc2c[nH]c3ccccc23)c(C#N)c(-c2ccccc2)n1
- GI50 (HOP-62 NSCLC): 13.5 µM
- TGI (HOP-62 NSCLC): 27.8 µM
- GI50 (SK-MEL-5 melanoma): 11.4 µM
- TGI (SK-MEL-5 melanoma): 23.6 µM
- GI50 (SW-620 colon): 10.3 µM
- TGI (SW-620 colon): 26 µM
- GI50 (IGROV1 ovarian): 16.6 µM
- TGI (IGROV1 ovarian): 32 µM
- GI50 (K-562 leukemia): 4.85 µM
- TGI (K-562 leukemia): > 100 µM
- GI50 (OVCAR-5 ovarian): 12.1 µM
- TGI (OVCAR-5 ovarian): 25.2 µM
- GI50 (MALME-3M melanoma): 16.5 µM
- TGI (MALME-3M melanoma): 30.7 µM
- GI50 (HT29 colon): 5.57 µM
- TGI (HT29 colon): 18.9 µM
- GI50 (BT-549 breast): 13.2 µM
- TGI (BT-549 breast): 26.6 µM
- GI50 (U251 CNS): 11.6 µM
- TGI (U251 CNS): 24.4 µM
- GI50 (CCRF-CEM leukemia): 9.41 µM
- TGI (CCRF-CEM leukemia): > 100 µM
- GI50 (RXF 393 renal): 6.66 µM
- TGI (RXF 393 renal): 20.3 µM
- GI50 (NCI-H23 lung): 15.5 µM
- TGI (NCI-H23 lung): 30.7 µM
- GI50 (SK-OV-3 ovarian): 17.5 µM
- TGI (SK-OV-3 ovarian): 45.4 µM
- GI50 (SN12C renal): 13.3 µM
- TGI (SN12C renal): 26.2 µM
- GI50 (T-47D breast): 6.54 µM
- TGI (T-47D breast): 20.8 µM
- GI50 (OVCAR-8 ovarian): 18.2 µM
- TGI (OVCAR-8 ovarian): 51.4 µM
- GI50 (SF-539 CNS): 13 µM
- TGI (SF-539 CNS): 27 µM
- GI50 (CAKI-1 renal): 11.2 µM
- TGI (CAKI-1 renal): 26 µM
- GI50 (TK-10 renal): 22.8 µM
- TGI (TK-10 renal): 46.8 µM
- GI50 (M14 melanoma): 13.8 µM
- TGI (M14 melanoma): 28.4 µM
- GI50 (DU-145 prostate): 14.9 µM
- TGI (DU-145 prostate): 34.8 µM
- GI50 (ACHN renal): 14.3 µM
- TGI (ACHN renal): 28 µM
- GI50 (MDA-MB-231 breast): 11.8 µM
- TGI (MDA-MB-231 breast): 27.3 µM
- GI50 (HS 578T breast): 14.8 µM
- TGI (HS 578T breast): 56.1 µM
- GI50 (PC-3 prostate): 7.08 µM
- TGI (PC-3 prostate): 43.8 µM
- GI50 (EKVX NSCLC): 12.1 µM
- TGI (EKVX NSCLC): 31.1 µM
- GI50 (MCF7 breast): 11.3 µM
- TGI (MCF7 breast): 25.4 µM
- GI50 (KM12 colon): 5.54 µM
- TGI (KM12 colon): 22.1 µM
- GI50 (SNB-19 CNS): 15.8 µM
- TGI (SNB-19 CNS): 33.3 µM
- GI50 (A549 NSCLC): 18.4 µM
- TGI (A549 NSCLC): 42.5 µM
- GI50 (SR leukemia): 5.25 µM
- TGI (SR leukemia): > 100 µM
- GI50 (SF-295 CNS): 13.7 µM
- TGI (SF-295 CNS): 29.6 µM
- GI50 (MDA-MB-468 breast): 3.12 µM
- TGI (MDA-MB-468 breast): 9.98 µM
- GI50 (UACC-62 melanoma): 14.4 µM
- TGI (UACC-62 melanoma): 27.6 µM
- GI50 (HCT-15 colon): 5.38 µM
- TGI (HCT-15 colon): 18.2 µM
- GI50 (HOP-92 NSCLC): 14.7 µM
- TGI (HOP-92 NSCLC): 33.7 µM
- GI50 (UACC-257 melanoma): 18.8 µM
- TGI (UACC-257 melanoma): 41.8 µM
- GI50 (COLO 205 colon): 8.37 µM
- TGI (COLO 205 colon): 21.2 µM
- GI50 (LOX IMVI melanoma): 4.57 µM
- TGI (LOX IMVI melanoma): 15.3 µM
- GI50 (SNB-75 CNS): 17.8 µM
- TGI (SNB-75 CNS): 56.9 µM
- GI50 (OVCAR-4 ovarian): 13.4 µM
- TGI (OVCAR-4 ovarian): 36.4 µM
- GI50 (SK-MEL-28 melanoma): 14.4 µM
- TGI (SK-MEL-28 melanoma): 28.6 µM
- GI50 (UO-31 renal): 14.3 µM
- TGI (UO-31 renal): 31.2 µM
- GI50 (MOLT-4 leukemia): 9.21 µM
- TGI (MOLT-4 leukemia): > 100 µM
- GI50 (OVCAR-3 ovarian): 15.8 µM
- TGI (OVCAR-3 ovarian): 30.8 µM
- GI50 (RPMI-8226 leukemia): 11.4 µM
- TGI (RPMI-8226 leukemia): > 100 µM
- GI50 (SF-268 CNS): 18.4 µM
- TGI (SF-268 CNS): 48.3 µM
- GI50 (HCT-116 colon): 5.17 µM
- TGI (HCT-116 colon): 18.5 µM
- GI50 (MDA-MB-435): 14.4 µM
- TGI (MDA-MB-435): 28.2 µM
- GI50 (NCI-H226 lung): 13 µM
- TGI (NCI-H226 lung): 27.3 µM
- GI50 (HCC-2998 colon): 10 µM
- TGI (HCC-2998 colon): 22.6 µM
- GI50 (786-0 renal): 12.6 µM
- TGI (786-0 renal): 30.5 µM
- GI50 (A498 renal): 15.1 µM
- TGI (A498 renal): 29.5 µM
- GI50 (NCI-H460 lung): 8.41 µM
- TGI (NCI-H460 lung): 27.9 µM
- GI50 (NCI-H522 lung): 15.3 µM
- TGI (NCI-H522 lung): 30.9 µM
- GI50 (HL-60(TB) leukemia): 13.5 µM
- TGI (HL-60(TB) leukemia): > 100 µM

From PubChem BioAssay (NCI)
